Experimental data: the kinase profiling compilation of Christmann-Franck et al. (2016)

Legend:
Details in all cases: compound 10.0 µM
RIOK3 (human) = RIOK3 (human) (UniProt O14730)
BTK (human) = BTK (human) (UniProt Q06187)
CDKL5 (human) = CDKL5 (human) (UniProt O76039)
CDKL2 (human) = CDKL2 (human) (UniProt Q92772)
CSNK1A1L (human) = CSNK1A1L (human) (UniProt Q8N752)
ITK (human) = ITK (human) (UniProt Q08881)
SRPK2 (human) = SRPK2 (human) (UniProt P78362)
ACVR1B (human) = ACVR1B (human) (UniProt P36896)
ACVR1B (human), sequence (P36896 whole entry, looked up): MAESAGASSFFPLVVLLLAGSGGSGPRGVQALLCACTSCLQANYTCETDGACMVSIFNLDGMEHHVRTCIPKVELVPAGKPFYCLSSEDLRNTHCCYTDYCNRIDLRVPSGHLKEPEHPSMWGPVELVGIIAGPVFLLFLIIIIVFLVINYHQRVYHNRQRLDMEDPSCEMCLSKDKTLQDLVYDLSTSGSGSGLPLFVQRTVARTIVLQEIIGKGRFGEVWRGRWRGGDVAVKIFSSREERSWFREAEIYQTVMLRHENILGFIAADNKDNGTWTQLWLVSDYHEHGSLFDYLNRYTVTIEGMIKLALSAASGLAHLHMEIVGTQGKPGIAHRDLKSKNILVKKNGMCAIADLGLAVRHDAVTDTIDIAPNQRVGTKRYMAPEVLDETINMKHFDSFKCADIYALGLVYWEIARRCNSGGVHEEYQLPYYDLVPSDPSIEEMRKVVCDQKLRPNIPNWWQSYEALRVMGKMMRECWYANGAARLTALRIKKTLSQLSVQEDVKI

ACVR2A (human) = ACVR2A (human) (UniProt P27037)
MAPK4 (human) = MAPK4 (human) (UniProt P31152)
STK38L (human) = STK38L (human) (UniProt Q9Y2H1)
DDR1 (human) = DDR1 (human) (UniProt Q08345)
MAP3K12 (human) = MAP3K12 (human) (UniProt Q12852)
GRK4 (human) = GRK4 (human) (UniProt P32298)
DCLK2 (human) = DCLK2 (human) (UniProt Q8N568)
ULK2 (human) = ULK2 (human) (UniProt Q8IYT8)
DDR2 (human) = DDR2 (human) (UniProt Q16832)
IRAK4 (human) = IRAK4 (human) (UniProt Q9NWZ3)
PIM3 (human) = PIM3 (human) (UniProt Q86V86)
PKN3 (M.tuberculosis) = PKN3 (M.tuberculosis) (UniProt Q6P5Z2)
HIPK1 (human) = HIPK1 (human) (UniProt Q86Z02)
HIPK3 (human) = HIPK3 (human) (UniProt Q9H422)
EPHA2 (human) = EPHA2 (human) (UniProt P29317)
ROCK1 (human) = ROCK1 (human) (UniProt Q13464)
PRKG1 (human) = PRKG1 (human) (UniProt Q13976)
[1] = tested on: LRRK2 (human), Q5S007 [G2019S]
FGFR2 (human) = FGFR2 (human) (UniProt P21802)
AURKC (human) = AURKC (human) (UniProt Q9UQB9)
MAPK14 (human) = MAPK14 (human) (UniProt Q16539)
PRKACB (human) = PRKACB (human) (UniProt P22694)
BRSK2 (human) = BRSK2 (human) (UniProt Q8IWQ3)
BRSK2 (human), sequence (Q8IWQ3 whole entry, looked up): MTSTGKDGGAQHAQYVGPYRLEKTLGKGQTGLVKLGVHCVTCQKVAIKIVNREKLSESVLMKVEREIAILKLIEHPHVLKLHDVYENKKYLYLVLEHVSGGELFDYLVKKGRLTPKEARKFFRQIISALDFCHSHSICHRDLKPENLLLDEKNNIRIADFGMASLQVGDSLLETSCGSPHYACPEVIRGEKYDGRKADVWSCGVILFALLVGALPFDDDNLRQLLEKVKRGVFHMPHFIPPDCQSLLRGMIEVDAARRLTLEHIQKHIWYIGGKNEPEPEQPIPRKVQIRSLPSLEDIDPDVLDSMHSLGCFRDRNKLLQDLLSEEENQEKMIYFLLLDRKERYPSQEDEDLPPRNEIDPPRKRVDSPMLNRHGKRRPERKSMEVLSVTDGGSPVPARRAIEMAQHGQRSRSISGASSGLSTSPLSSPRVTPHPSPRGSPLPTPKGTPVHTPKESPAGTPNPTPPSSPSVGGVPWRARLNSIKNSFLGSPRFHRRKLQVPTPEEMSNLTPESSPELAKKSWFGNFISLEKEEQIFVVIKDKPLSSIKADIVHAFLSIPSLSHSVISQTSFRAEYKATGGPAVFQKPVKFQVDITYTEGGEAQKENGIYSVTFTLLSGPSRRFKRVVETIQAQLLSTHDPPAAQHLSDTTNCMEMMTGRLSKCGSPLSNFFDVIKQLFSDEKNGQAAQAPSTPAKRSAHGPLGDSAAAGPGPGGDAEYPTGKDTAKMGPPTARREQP

RPS6KA1 KD1 (human) = RPS6KA1 KD1 (human) (UniProt Q15418)
RPS6KA1 KD1 (human), sequence (Q15418 whole entry, looked up): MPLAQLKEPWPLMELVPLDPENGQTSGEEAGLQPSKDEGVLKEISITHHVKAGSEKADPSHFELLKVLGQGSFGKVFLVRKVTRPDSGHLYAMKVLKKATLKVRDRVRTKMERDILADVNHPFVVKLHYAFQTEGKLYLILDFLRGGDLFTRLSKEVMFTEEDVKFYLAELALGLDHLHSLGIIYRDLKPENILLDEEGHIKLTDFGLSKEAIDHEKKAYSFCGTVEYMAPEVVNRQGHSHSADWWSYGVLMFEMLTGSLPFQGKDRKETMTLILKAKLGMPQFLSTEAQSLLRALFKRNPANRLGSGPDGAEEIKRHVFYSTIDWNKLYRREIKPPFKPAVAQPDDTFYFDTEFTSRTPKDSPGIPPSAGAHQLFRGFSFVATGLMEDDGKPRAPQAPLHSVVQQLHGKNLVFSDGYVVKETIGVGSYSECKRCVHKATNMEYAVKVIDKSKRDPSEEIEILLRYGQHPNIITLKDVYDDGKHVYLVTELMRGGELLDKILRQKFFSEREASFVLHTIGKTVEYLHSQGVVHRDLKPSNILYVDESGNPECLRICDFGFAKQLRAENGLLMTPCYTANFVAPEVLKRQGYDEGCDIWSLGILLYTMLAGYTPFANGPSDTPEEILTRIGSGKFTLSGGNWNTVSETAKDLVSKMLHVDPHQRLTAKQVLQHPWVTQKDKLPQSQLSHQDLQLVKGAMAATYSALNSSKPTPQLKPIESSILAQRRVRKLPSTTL

STK10 (human) = STK10 (human) (UniProt O94804)
MAPK12 (human) = MAPK12 (human) (UniProt P53778)
PRKG2 (human) = PRKG2 (human) (UniProt Q13237)
CAMK2D (human) = CAMK2D (human) (UniProt Q13557)
PAK7 (human) = PAK7 (human) (UniProt Q9P286)
MERTK (human) = MERTK (human) (UniProt Q12866)
MYO3B (human) = MYO3B (human) (UniProt Q8WXR4)
MYO3B (human), sequence (Q8WXR4 whole entry, looked up): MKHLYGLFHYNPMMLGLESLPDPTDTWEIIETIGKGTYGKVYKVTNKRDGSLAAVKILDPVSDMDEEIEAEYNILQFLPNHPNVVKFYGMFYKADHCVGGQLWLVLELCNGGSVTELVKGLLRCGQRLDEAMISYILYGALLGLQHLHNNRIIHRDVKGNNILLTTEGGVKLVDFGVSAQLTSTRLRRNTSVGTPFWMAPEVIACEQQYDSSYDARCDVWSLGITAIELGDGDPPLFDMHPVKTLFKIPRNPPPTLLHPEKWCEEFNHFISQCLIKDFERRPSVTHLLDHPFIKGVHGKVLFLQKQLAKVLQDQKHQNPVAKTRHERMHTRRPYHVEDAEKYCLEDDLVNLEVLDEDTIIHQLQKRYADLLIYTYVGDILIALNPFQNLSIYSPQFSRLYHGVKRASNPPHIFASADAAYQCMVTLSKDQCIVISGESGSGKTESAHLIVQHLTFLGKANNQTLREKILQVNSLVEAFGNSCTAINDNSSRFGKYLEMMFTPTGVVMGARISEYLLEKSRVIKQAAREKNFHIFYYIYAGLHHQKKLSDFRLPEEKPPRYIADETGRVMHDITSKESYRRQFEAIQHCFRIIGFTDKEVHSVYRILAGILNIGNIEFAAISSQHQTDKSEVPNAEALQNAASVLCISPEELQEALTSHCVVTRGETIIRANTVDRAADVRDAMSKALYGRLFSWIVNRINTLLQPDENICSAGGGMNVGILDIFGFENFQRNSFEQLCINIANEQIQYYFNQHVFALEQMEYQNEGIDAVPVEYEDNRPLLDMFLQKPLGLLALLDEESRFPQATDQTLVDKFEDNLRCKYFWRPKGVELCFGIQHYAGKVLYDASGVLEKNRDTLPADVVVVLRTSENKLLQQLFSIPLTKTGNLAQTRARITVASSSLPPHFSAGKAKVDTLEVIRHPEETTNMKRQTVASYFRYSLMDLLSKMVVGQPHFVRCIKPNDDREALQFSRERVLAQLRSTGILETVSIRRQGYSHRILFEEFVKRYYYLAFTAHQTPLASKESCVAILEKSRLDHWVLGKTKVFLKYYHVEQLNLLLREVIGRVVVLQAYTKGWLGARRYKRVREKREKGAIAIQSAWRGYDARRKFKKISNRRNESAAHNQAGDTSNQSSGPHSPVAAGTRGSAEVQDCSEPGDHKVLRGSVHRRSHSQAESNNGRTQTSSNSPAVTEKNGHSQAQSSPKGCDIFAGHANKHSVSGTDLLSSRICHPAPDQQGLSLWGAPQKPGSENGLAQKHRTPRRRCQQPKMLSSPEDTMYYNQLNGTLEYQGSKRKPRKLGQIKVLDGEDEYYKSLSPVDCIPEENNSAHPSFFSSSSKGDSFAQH

MAPK9 (human) = MAPK9 (human) (UniProt P45984)
[2] = tested on: KIT (human), P10721 [L576P]
KIT (human), P10721 [L576P], sequence (P10721 whole entry L576P, looked up): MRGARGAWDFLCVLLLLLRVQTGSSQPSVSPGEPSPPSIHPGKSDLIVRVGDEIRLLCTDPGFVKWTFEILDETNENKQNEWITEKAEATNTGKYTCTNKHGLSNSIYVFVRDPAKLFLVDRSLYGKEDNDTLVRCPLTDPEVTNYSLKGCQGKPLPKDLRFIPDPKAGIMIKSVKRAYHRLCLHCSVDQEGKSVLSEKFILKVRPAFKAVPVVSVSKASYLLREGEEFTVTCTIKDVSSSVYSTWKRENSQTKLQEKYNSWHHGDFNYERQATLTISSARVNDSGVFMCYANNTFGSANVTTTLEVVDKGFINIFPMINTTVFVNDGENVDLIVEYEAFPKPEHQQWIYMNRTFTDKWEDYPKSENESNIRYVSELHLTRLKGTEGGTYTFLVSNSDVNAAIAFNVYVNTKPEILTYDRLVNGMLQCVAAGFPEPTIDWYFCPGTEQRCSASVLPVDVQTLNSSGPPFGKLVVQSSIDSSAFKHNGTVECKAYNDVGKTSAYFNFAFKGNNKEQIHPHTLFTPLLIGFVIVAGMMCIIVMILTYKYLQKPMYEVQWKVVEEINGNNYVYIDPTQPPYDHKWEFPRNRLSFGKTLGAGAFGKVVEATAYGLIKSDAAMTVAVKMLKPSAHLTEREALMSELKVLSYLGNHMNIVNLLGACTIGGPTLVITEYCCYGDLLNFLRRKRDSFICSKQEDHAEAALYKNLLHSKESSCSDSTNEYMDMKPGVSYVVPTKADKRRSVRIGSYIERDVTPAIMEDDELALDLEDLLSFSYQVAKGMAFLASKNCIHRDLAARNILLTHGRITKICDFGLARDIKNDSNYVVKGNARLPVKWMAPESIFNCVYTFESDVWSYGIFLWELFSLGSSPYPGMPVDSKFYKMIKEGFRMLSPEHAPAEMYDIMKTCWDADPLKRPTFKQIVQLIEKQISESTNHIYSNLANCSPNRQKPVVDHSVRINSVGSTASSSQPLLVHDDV

RIOK3 (human), sequence (O14730 whole entry, looked up): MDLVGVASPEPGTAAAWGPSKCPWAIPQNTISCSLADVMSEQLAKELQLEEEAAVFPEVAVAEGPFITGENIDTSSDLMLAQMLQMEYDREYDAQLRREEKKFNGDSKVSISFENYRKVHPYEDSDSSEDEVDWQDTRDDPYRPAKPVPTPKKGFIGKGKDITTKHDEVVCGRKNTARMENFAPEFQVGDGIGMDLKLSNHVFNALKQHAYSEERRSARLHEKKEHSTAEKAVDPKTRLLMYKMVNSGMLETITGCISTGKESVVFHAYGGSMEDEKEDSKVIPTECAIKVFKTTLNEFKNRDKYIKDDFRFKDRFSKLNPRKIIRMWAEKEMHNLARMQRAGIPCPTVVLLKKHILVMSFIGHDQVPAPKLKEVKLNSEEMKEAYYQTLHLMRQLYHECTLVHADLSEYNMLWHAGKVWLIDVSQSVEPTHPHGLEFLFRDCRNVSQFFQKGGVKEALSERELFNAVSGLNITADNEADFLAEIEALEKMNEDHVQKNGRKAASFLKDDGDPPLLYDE

CNC(=O)c1cc(Oc2ccc(NC(=O)Nc3ccc(Cl)c(C(F)(F)F)c3)cc2)ccn1 gave a per cent of control (RIOK3 (human)) of 88%, a per cent of control (BTK (human)) of 62% and a per cent of control (CDKL5 (human)) of 67%. It also gave a per cent of control (CDKL2 (human)) of 0.05%, a per cent of control (CSNK1A1L (human)) of 100% and a per cent of control (ITK (human)) of 100%. It also gave a per cent of control (SRPK2 (human)) of 100%, a per cent of control (ACVR1B (human)) of 56% and a per cent of control (ACVR2A (human)) of 100%. The per cent of control (MAPK4 (human)) was 79%, the per cent of control (STK38L (human)) was 95% and the per cent of control (DDR1 (human)) was 0%. For the same compound, the per cent of control (MAP3K12 (human)) was 100%, the per cent of control (GRK4 (human)) was 99% and the per cent of control (DCLK2 (human)) was 95%. It also gave a per cent of control (ULK2 (human)) of 94%, a per cent of control (DDR2 (human)) of 13% and a per cent of control (IRAK4 (human)) of 100%. For the same compound, the per cent of control (PIM3 (human)) was 100%, the residual activity (PKN3 (M.tuberculosis)) was 100% and the per cent of control (HIPK1 (human)) was 17%. For the same compound, the per cent of control (HIPK3 (human)) was 1.2%, the per cent of control (EPHA2 (human)) was 9% and the per cent of control (ROCK1 (human)) was 84%. It also gave a per cent of control (PRKG1 (human)) of 100%, a per cent of control [1] of 62% and a per cent of control (FGFR2 (human)) of 6.4%. For the same compound, the per cent of control (AURKC (human)) was 12%, the per cent of control (MAPK14 (human)) was 0.1% and the per cent of control (PRKACB (human)) was 100%. For the same compound, the per cent of control (BRSK2 (human)) was 98%, the per cent of control (RPS6KA1 KD1 (human)) was 84% and the per cent of control (STK10 (human)) was 0%. The per cent of control (MAPK12 (human)) was 42%, the per cent of control (PRKG2 (human)) was 100% and the per cent of control (CAMK2D (human)) was 89%. It also gave a per cent of control (PAK7 (human)) of 100%, a per cent of control (MERTK (human)) of 2.4% and a per cent of control (MYO3B (human)) of 38%. For the same compound, the per cent of control (MAPK9 (human)) was 21% and the per cent of control [2] was 0%.

With CNC(=O)c1cc(Oc2ccc(NC(=O)Nc3ccc(Cl)c(C(F)(F)F)c3)cc2)cc[n+]1[O-] the per cent of control (RIOK3 (human)) was 73%, the per cent of control (BTK (human)) was 30% and the per cent of control (CDKL5 (human)) was 27%. It also gave a per cent of control (CDKL2 (human)) of 0.1%, a per cent of control (CSNK1A1L (human)) of 100% and a per cent of control (ITK (human)) of 100%. The per cent of control (SRPK2 (human)) was 73%, the per cent of control (ACVR1B (human)) was 44% and the per cent of control (ACVR2A (human)) was 89%. It also gave a per cent of control (MAPK4 (human)) of 78%, a per cent of control (STK38L (human)) of 100% and a per cent of control (DDR1 (human)) of 0.05%. The per cent of control (MAP3K12 (human)) was 100%, the per cent of control (GRK4 (human)) was 100% and the per cent of control (DCLK2 (human)) was 87%. The per cent of control (ULK2 (human)) was 75%, the per cent of control (DDR2 (human)) was 19% and the per cent of control (IRAK4 (human)) was 100%. The per cent of control (PIM3 (human)) was 100%, the residual activity (PKN3 (M.tuberculosis)) was 100% and the per cent of control (HIPK1 (human)) was 44%. The per cent of control (HIPK3 (human)) was 5.1%, the per cent of control (EPHA2 (human)) was 4.7% and the per cent of control (ROCK1 (human)) was 23%. It also gave a per cent of control (PRKG1 (human)) of 98%, a per cent of control [1] of 64% and a per cent of control (FGFR2 (human)) of 8.9%. For the same compound, the per cent of control (AURKC (human)) was 15%, the per cent of control (MAPK14 (human)) was 0% and the per cent of control (PRKACB (human)) was 98%. It also gave a per cent of control (BRSK2 (human)) of 100%, a per cent of control (RPS6KA1 KD1 (human)) of 91% and a per cent of control (STK10 (human)) of 0%. The per cent of control (MAPK12 (human)) was 0.1%, the per cent of control (PRKG2 (human)) was 100% and the per cent of control (CAMK2D (human)) was 87%. The per cent of control (PAK7 (human)) was 82%, the per cent of control (MERTK (human)) was 2% and the per cent of control (MYO3B (human)) was 17%. For the same compound, the per cent of control (MAPK9 (human)) was 0.05% and the per cent of control [2] was 0%.
